18 substances from patent US20220135622A1, “ANTIBACTERIAL PEPTIDES AND METHODS OF USE” (priority 2019, published 2022) can be followed below.

For one test, the system named is E. coli imp4213. Nature of the test: MIC assay, E. coli imp4213. In kind it is cell-based, Escherichia coli. The conditions noted are these: Table 7. The procedure:
(§1) Bacterial growth conditions. LB or Mueller Hinton II cation-adjusted broth (MHB II, BBL 212322) was prepared according to manufacturer's instructions and supplemented with arabinose at 0.02% for overnight growth or at indicated concentrations in the description of the figures. Bacterial cultures were grown at 37° C. When appropriate, media was supplemented with kanamycin (50 μg/mL), carbenicillin (50 μg/mL), chloramphenicol (12.5 or 25 μg/mL), hygromycin (200 μg/mL), and/or gentamicin (10 μg/mL).
(§2) Peptide sensitivity and MIC assays. Lyophilized peptides (Smartox Biotechnology, CPC Scientific. ABclonal) were solubilized to 10 mM in Tris buffer, pH 8, prior to making a 2-fold dilution series in MHBII cation adjusted broth with highest final assay concentration of 400-800 μM. Bacteria were grown to log phase and added to final OD600˜0.001. The final EDTA concentration was 0.5 mM for E. coli strains and 0.125 mM for USA300. The final volume of 10 μL/well in a 384 well black, clear bottom plate (Corning) was spun <1 min at <250×g and then incubated at 37° C. After 4 h, an equal volume (10 μL) of BacTiter-Glo™ (Promega) was added to each well and luminescence was read after 5 min on an EnVision plate reader (PerkinElmer). To measure the minimal inhibitory concentrations (MICs), bacteria from fresh overnight plates or log phase cultures were diluted with or without EDTA and peptides as described above to final OD600˜0.0002. Plates were incubated at 37° C. for 20 h before measuring OD600 with an EnVision plate reader.

The next test concerns S. aureus USA300. The experiment in a line: MIC assay, S. aureus USA300. In kind it is cell-based, Staphylococcus aureus. The conditions noted are these: Table 7. On the procedure:
as §1, §2

In another test the test system is A. baumannii. In kind it is cell-based, Acinetobacter baumannii. The conditions noted are these: Table 8. On the procedure: as §1, §2
The subject of another test is P. aeruginosa. In kind it is cell-based, Pseudomonas aeruginosa. The conditions noted are these: Table 8. The procedure: as §1, §2

As to Ac-YPMTARRFLAKHGL-NH2 [compound 36], in the test on E. coli imp4213, the “MIC E. coli imp4213” value worked out at 100 µM. Moreover, the “MIC S. aureus USA300” value with S. aureus USA300 is greater than 800 µM.
Taken in the same sequence, the figures for Ac-YPMTARRFLEKAGL-NH2 [compound 42] were 800 µM and greater than 800 µM.
With Ac-KPMTARRFLEKWGLLR-NH2 [compound 61], the “MIC E. coli imp4213” value in the test with E. coli imp4213 came out at 12.5 µM. Moreover, in the test on A. baumannii, the “MIC A. baumannii” value turned out to be 40 µM. In addition, the “MIC R. aeruginosa” value against P. aeruginosa is 400 µM.
Take Ac-YPMTARRFLEKKGL-NH2 [compound 46]: in the test on E. coli imp4213, the “MIC E. coli imp4213” value was 100 µM. The “MIC S. aureus USA300” value against S. aureus USA300 is greater than 800 µM.
Taken in the same sequence, the figures for Ac-YPFTARRFLEKHGL-NH2 [compound 23] were 400 µM and greater than 800 µM.
Take Ac-WPMTARRFLEKHGL-NH2 [compound 18]: the “MIC E. coli imp4213” value in the test on E. coli imp4213 came out at 200 µM. In addition, the “MIC S. aureus USA300” value against S. aureus USA300 is greater than 800 µM.
Taken in the same sequence, the figures for Ac-YPMTARHFLEKHGL-NH2 [compound 33] were 800 µM and greater than 800 µM.
Turning to Ac-YPMTWRRFLEKHGL-NH2 [compound 28], the “MIC E. coli imp4213” value with E. coli imp4213 was found to be 50 µM. Further, in the test with S. aureus USA300, the “MIC S. aureus USA300” value is greater than 800 µM.
In the case of Ac-YPMAARRFLEKHGL-NH2 [compound 25], in the test on E. coli imp4213, the “MIC E. coli imp4213” value came to 800 µM. Besides, the “MIC S. aureus USA300” value in the test on S. aureus USA300 is greater than 800 µM.
Regarding Ac-YPMSARRFLAKWGLLR-NH2 [compound 15], the “MIC E. coli imp4213” value with E. coli imp4213 is less than 12.5 µM. In addition, the “MIC S. aureus USA300” value against S. aureus USA300 was 800 µM.
Regarding Ac-YPMTARRFLRKHGL-NH2 [compound 38], in the test with E. coli imp4213, the “MIC E. coli imp4213” value was 100 µM. For the same substance, in the test with S. aureus USA300, the “MIC S. aureus USA300” value is greater than 800 µM.
Turning to Ac-YPMTAKRFLEKHGL-NH2 [compound 30], the “MIC E. coli imp4213” value in the test on E. coli imp4213 is 800 µM. Besides, the “MIC S. aureus USA300” value with S. aureus USA300 was greater than 800 µM.
With Ac-YPATARRFLEKHGL-NH2 [compound 21], the “MIC E. coli imp4213” value in the test on E. coli imp4213 was 800 µM. The “MIC S. aureus USA300” value in the test on S. aureus USA300 was greater than 800 µM.
Consider Ac-YPWTARRFLEKHGL-NH2 [compound 24], for which the “MIC E. coli imp4213” value in the test on E. coli imp4213 amounted to 400 µM. In the test with S. aureus USA300, the “MIC S. aureus USA300” value was greater than 800 µM.
For Ac-YAMTARRFLEKHGL-NH2 [compound 20], the “MIC E. coli imp4213” value in the test on E. coli imp4213 stood at 400 µM. In the test with S. aureus USA300, the “MIC S. aureus USA300” value was greater than 800 µM.
Consider Ac-YPMSARRFLEKHGL-NH2 [compound 26], for which the “MIC E. coli imp4213” value in the test on E. coli imp4213 amounted to 800 µM. The “MIC S. aureus USA300” value with S. aureus USA300 was greater than 800 µM.
In the case of Ac-YPMTARRFLEKHGW-NH2 [compound 47], the “MIC E. coli imp4213” value against E. coli imp4213 stood at 200 µM. The “MIC S. aureus USA300” value against S. aureus USA300 was greater than 800 µM.
The matching figures for Ac-YPMTARRFLEKYGL-NH2 [compound 43]: 100 µM and greater than 800 µM.
